In patent US6924278B2, “Aroyl-piperazine derivatives, their preparation and their use as tachykinin antagonists” (Fujisawa Pharmaceutical Co., Ltd., priority 1997, dated 2005):
Counter-ions that a name gives are not always drawn.

Row | SMILES | melting point
1 | Cl.Cl.O=C(c1cc(C(F)(F)F)cc(C(F)(F)F)c1)N1CCN(CC#Cc2cccnc2)C[C@H]1Cc1c[nH]c2ccccc12 | 180 to 190 °C
2 | Cl.Cl.O=C(c1cc(C(F)(F)F)cc(C(F)(F)F)c1)N1CCN(CC#Cc2cccnc2)C[C@H]1Cc1ccc2ccccc2c1 | 140 to 150 °C
3 | Cl.Cl.O=C(c1cc(C(F)(F)F)cc(C(F)(F)F)c1)N1CCN(C/C=C\c2cccnc2)C[C@H]1Cc1ccc2ccccc2c1 | 130 to 150 °C
4 | Cl.Cl.O=C(c1cc(C(F)(F)F)cc(C(F)(F)F)c1)N1CCN(CCCc2cccnc2)C[C@H]1Cc1ccc2ccccc2c1 | 138 to 148 °C
5 | Cc1ccc(C[C@@H]2CN(CC#CCN3CCSCC3)CCN2C(=O)c2cc(Cl)cc(Cl)c2)cc1C.Cl.Cl | 128 °C (dec.)
6 | Cl.Cl.O=C(c1cc(Cl)cc(Cl)c1)N1CCN(CC#CCN2CCSCC2)C[C@H]1Cc1c[nH]c2ccccc12 | 175 °C (dec.)
7 | Cl.Cl.O=C(c1cc(Cl)cc(Cl)c1)N1CCN(CC#CCN2CCOCC2)C[C@H]1Cc1c[nH]c2ccccc12 | 165 °C (dec.)
8 | Cl.Cl.O=C(c1cc(Cl)cc(Cl)c1)N1CCN(CC#CCN2CCOCC2)C[C@H]1Cc1ccc2ccccc2c1 | 171 °C (dec.)
9 | Cl.Cl.O=C(c1cc(Cl)cc(Cl)c1)N1CCN(CC#CCN2CCSCC2)C[C@H]1Cc1ccc(C(F)(F)F)cc1 | 172 °C (dec.)
10 | Cl.Cl.O=C(c1cc(Cl)cc(Cl)c1)N1CCN(CC#CCN2CCOCC2)C[C@H]1Cc1ccc(C(F)(F)F)cc1 | 186 °C (dec.)
11 | COc1ccc(C#CCN2CCN(C(=O)c3cc(C(F)(F)F)cc(C(F)(F)F)c3)[C@H](Cc3ccc(C)c(C)c3)C2)cn1.Cl.Cl | 160 to 170 °C
12 | COc1ccc(C#CCN2CCN(C(=O)c3cc(C(F)(F)F)cc(C(F)(F)F)c3)[C@H](Cc3c[nH]c4ccccc34)C2)cn1.Cl.Cl | 183 to 189 °C
13 | Cc1ccc(C[C@@H]2CN(CCCc3ccccn3)CCN2C(=O)c2cc(C(F)(F)F)cc(C(F)(F)F)c2)cc1C.Cl.Cl | 120 to 130 °C
14 | Cl.Cl.O=C(c1cc(C(F)(F)F)cc(C(F)(F)F)c1)N1CCN(CCCc2cccnc2)C[C@H]1Cc1c[nH]c2ccccc12 | 150 to 160 °C
15 | Cl.Cl.O=C(c1cc(C(F)(F)F)cc(C(F)(F)F)c1)N1CCN(CCCCc2cccnc2)C[C@H]1Cc1c[nH]c2ccccc12 | 140 to 145 °C
16 | Cc1ccc(C[C@@H]2CN(CC#CCN3CCOC[C@@H]3CC(C)C)CCN2C(=O)c2cc(C(F)(F)F)cc(C(F)(F)F)c2)cc1C.Cl.Cl | 125 to 138 °C
17 | COc1ccncc1C#CCN1CCN(C(=O)c2cc(C(F)(F)F)cc(C(F)(F)F)c2)[C@H](Cc2c[nH]c3ccccc23)C1.Cl.Cl | 162 to 167 °C
18 | COc1ccncc1C#CCN1CCN(C(=O)c2cc(C(F)(F)F)cc(C(F)(F)F)c2)[C@H](Cc2ccc(C)c(C)c2)C1.Cl.Cl | 150 to 153 °C
19 | COc1ccncc1CCCN1CCN(C(=O)c2cc(C(F)(F)F)cc(C(F)(F)F)c2)[C@H](Cc2c[nH]c3ccccc23)C1.Cl.Cl | 165 to 170 °C
20 | COc1ccncc1CCCN1CCN(C(=O)c2cc(C(F)(F)F)cc(C(F)(F)F)c2)[C@H](Cc2ccc(C)c(C)c2)C1.Cl.Cl | 159 to 168 °C
21 | Cl.Cl.Nc1ccc(C#CCN2CCN(C(=O)c3cc(C(F)(F)F)cc(C(F)(F)F)c3)[C@H](Cc3c[nH]c4ccccc34)C2)cn1 | 190 to 195 °C
22 | Cc1ccc(C[C@@H]2CN(CC#Cc3ccc(N)nc3)CCN2C(=O)c2cc(C(F)(F)F)cc(C(F)(F)F)c2)cc1C.Cl.Cl | 183 to 189 °C

Row | SMILES | melting point
23 | Cc1ccc(C[C@@H]2CN(C/C=C\c3cccnc3)CCN2C(=O)c2cc(C(F)(F)F)cc(C(F)(F)F)c2)cc1C.Cl.Cl | 170 to 174 °C
24 | COc1ccc(CCCN2CCN(C(=O)c3cc(C(F)(F)F)cc(C(F)(F)F)c3)[C@H](Cc3ccc(C)c(C)c3)C2)cn1.Cl.Cl | 127 to 137 °C
25 | COc1ccc(CCCN2CCN(C(=O)c3cc(C(F)(F)F)cc(C(F)(F)F)c3)[C@H](Cc3c[nH]c4ccccc34)C2)cn1.Cl.Cl | 195 to 200 °C
26 | Cl.Cl.O=C(c1cc(C(F)(F)F)cc(C(F)(F)F)c1)N1CCN(CCCCc2ccccn2)C[C@H]1Cc1c[nH]c2ccccc12 | 155 to 160 °C
27 | Cc1ccc(C[C@@H]2CN(CCCn3cccn3)CCN2C(=O)c2cc(C(F)(F)F)cc(C(F)(F)F)c2)cc1C.Cl | 73 to 75 °C
28 | Cl.Cl.O=C(c1cc(C(F)(F)F)cc(C(F)(F)F)c1)N1CCN(CC#Cc2ccccn2)C[C@H]1Cc1c[nH]c2ccccc12 | 160 to 166 °C
29 | Cl.Cl.O=C(c1cc(C(F)(F)F)cc(C(F)(F)F)c1)N1CCN(CCC#Cc2cccnc2)C[C@H]1Cc1c[nH]c2ccccc12 | 175 to 185 °C
30 | CCOC[C@H]1COCCN1CC#CCN1CCN(C(=O)c2cc(C(F)(F)F)cc(C(F)(F)F)c2)[C@H](Cc2ccc(C)c(C)c2)C1.Cl.Cl | 155 to 160 °C
31 | Cc1ccc(C[C@@H]2CN(CC#CCN3CCOC[C@@H]3CO)CCN2C(=O)c2cc(C(F)(F)F)cc(C(F)(F)F)c2)cc1C.Cl.Cl | 130 to 150 °C
32 | COC[C@@H]1COCCN1C/C=C/CN1CCN(C(=O)c2cc(C(F)(F)F)cc(C(F)(F)F)c2)[C@H](Cc2ccc(C)c(C)c2)C1.Cl.Cl | 240 to 250 °C
33 | Cc1ccc(C[C@@H]2CN(CC#CCN3CCOC[C@H]3C(=O)N(C)C)CCN2C(=O)c2cc(C(F)(F)F)cc(C(F)(F)F)c2)cc1C.Cl.Cl | 150 to 160 °C
34 | CC[C@@H]1COCCN1CC#CCN1CCN(C(=O)c2cc(C(F)(F)F)cc(C(F)(F)F)c2)[C@H](Cc2c[nH]c3ccccc23)C1.Cl.Cl | 176 to 180 °C
35 | COC[C@H]1CCCN1CC#CCN1CCN(C(=O)c2cc(C(F)(F)F)cc(C(F)(F)F)c2)[C@H](Cc2c[nH]c3ccccc23)C1.Cl.Cl | 190 to 195 °C
36 | COC[C@@H]1COCCN1CCCN1CCN(C(=O)c2cc(C(F)(F)F)cc(C(F)(F)F)c2)[C@H](Cc2ccc(C)c(C)c2)C1.Cl.Cl | 80 to 100 °C
37 | COCC1CN(CCN2CCN(C(=O)c3cc(C(F)(F)F)cc(C(F)(F)F)c3)[C@H](Cc3ccc(C)c(C)c3)C2)CCO1.Cl.Cl (some centres unmarked) | 150 to 154 °C
38 | COC[C@H]1COCCN1CCN1CCN(C(=O)c2cc(C(F)(F)F)cc(C(F)(F)F)c2)[C@H](Cc2c[nH]c3ccccc23)C1.Cl.Cl | 175 to 185 °C
39 | COC[C@@H]1COCCN1CCN1CCN(C(=O)c2cc(C(F)(F)F)cc(C(F)(F)F)c2)[C@H](Cc2c[nH]c3ccccc23)C1.Cl.Cl | 130 to 150 °C
40 | C[C@H]1COC[C@H](C)N1CCN1CCN(C(=O)c2cc(C(F)(F)F)cc(C(F)(F)F)c2)[C@H](Cc2c[nH]c3ccccc23)C1.Cl.Cl | 170 to 180 °C
41 | COc1cccc(CC2CN(CC#CCN3CCOCC3(C)C)CCN2C(=O)c2cc(C(F)(F)F)cc(C(F)(F)F)c2)c1OC.Cl.Cl (centres unmarked) | 170 °C
42 | CNc1cc(C(=O)N2CCN(CC#CCN3CCOCC3(C)C)C[C@H]2Cc2c[nH]c3ccccc23)cc(C(F)(F)F)c1.Cl.Cl | 215 to 230 °C
43 | CN(C)c1cccc(CC2CN(CC#CCN3CCOCC3(C)C)CCN2C(=O)c2cc(C(F)(F)F)cc(C(F)(F)F)c2)c1.Cl.Cl.Cl (centres unmarked) | 205 to 210 °C
44 | CNc1cccc(CC2CN(CC#CCN3CCOCC3(C)C)CCN2C(=O)c2cc(C(F)(F)F)cc(C(F)(F)F)c2)c1 (centres unmarked) (as salt: hydrochloride) [Example 93, 1-[3,5-Bis(trifluoromethyl)benzoyl]-4-[4-(3,3-dimethylmorpholino)-2-butynyl]-2-[3-(N-methylamino)benzyl]piperazine] | 192 to 195 °C
